Reference: ChEMBL document CHEMBL1201862, “PubChem BioAssay data set” (2004)
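Each compound was tested at five concentrations against cells in 96-well plates for 48 hours. At the GI50, growth is halved.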 Activity calls are given as the source filed them. No stated cut-off is given here; in the data, active = GI50 up to about 1.1 µM and inactive = higher.

Key:
Assay in all cases: growth of human tumour cells (NCI), 48 h
786-0 = tested on: 786-0
COLO 205 = tested on: COLO 205
DMS-114 = tested on: DMS-114
HCT-15 = tested on: HCT-15
K562 = tested on: K562
KM-20L2 = tested on: KM-20L2
M14 = tested on: M14
OVCAR-5 = tested on: OVCAR-5
OVCAR-8 = tested on: OVCAR-8
SF-268 = tested on: SF-268
SF-295 = tested on: SF-295
SK-MEL-28 = tested on: SK-MEL-28
SK-MEL-2 = tested on: SK-MEL-2
SK-MEL-5 = tested on: SK-MEL-5
SR = tested on: SR
SW-620 = tested on: SW-620
UACC-257 = tested on: UACC-257
DU-145 = tested on: DU-145
NCI/ADR-RES = tested on: NCI/ADR-RES
PC-3 = tested on: PC-3

Measured: GI50

O=c1c2ccccc2[nH]c2ccc3c(Cl)n[nH]c3c12
inactive: 786-0 34.1 µM | COLO 205 36.4 µM | DMS-114 57.7 µM | K562 34.3 µM | KM-20L2 51.9 µM | M14 60.1 µM | OVCAR-5 41.1 µM | OVCAR-8 40.5 µM | SF-268 50.5 µM | SF-295 37.2 µM | SK-MEL-28 87.5 µM | SK-MEL-2 30.7 µM | SK-MEL-5 40.9 µM | SR 36.1 µM | SW-620 36.5 µM | UACC-257 37.2 µM
35.6 µM: HCT-15

O=S(=O)(/C=C/CS(=O)(=O)c1ccccc1)c1ccccc1
inactive: 786-0 24.3 µM | COLO 205 36.1 µM | DMS-114 23.4 µM | K562 25.3 µM | KM-20L2 29.2 µM | M14 23 µM | OVCAR-5 47.1 µM | OVCAR-8 16.9 µM | SF-268 26.9 µM | SF-295 27.9 µM | SK-MEL-28 31.8 µM | SK-MEL-2 6.47 µM | SK-MEL-5 40.8 µM | SR 1.66 µM | SW-620 20.9 µM | UACC-257 24.2 µM
17.5 µM: HCT-15

COc1ccc(/C=C/c2nnc(S)[nH]2)cc1
> 100 µM: HCT-15
inactive: 786-0 > 100 µM | DMS-114 > 100 µM | K562 > 100 µM | KM-20L2 > 100 µM | M14 > 100 µM | OVCAR-5 > 100 µM | OVCAR-8 > 100 µM | SF-268 > 100 µM | SF-295 > 100 µM | SK-MEL-28 > 100 µM | SK-MEL-2 > 100 µM | SK-MEL-5 > 100 µM | SR > 100 µM | SW-620 > 100 µM | UACC-257 > 100 µM

Cc1ccc2c(c1)CN(C(=O)CCC(=O)OCc1ccccc1)c1ccc(C)cc1CN2C(=O)CCC(=O)OCc1ccccc1
> 100 µM: HCT-15
inactive: 786-0 > 90.8 µM | COLO 205 > 100 µM | DMS-114 > 100 µM | DU-145 > 100 µM | K562 > 100 µM | KM-20L2 > 100 µM | M14 > 100 µM | NCI/ADR-RES > 100 µM | OVCAR-5 > 100 µM | OVCAR-8 > 100 µM | PC-3 > 100 µM | SF-268 > 100 µM | SF-295 98.6 µM | SK-MEL-28 > 100 µM | SK-MEL-2 > 100 µM | SK-MEL-5 > 100 µM | SR > 100 µM | SW-620 > 100 µM | UACC-257 > 100 µM

CN(Cc1ccccc1)c1nc(=[N+](C)C)ss1
inactive: 786-0 > 100 µM | DMS-114 20.3 µM | K562 23.4 µM | KM-20L2 > 100 µM | M14 > 100 µM | OVCAR-5 > 100 µM | OVCAR-8 > 100 µM | SF-268 49.1 µM | SF-295 > 100 µM | SK-MEL-28 > 100 µM | SK-MEL-2 25.9 µM | SK-MEL-5 58.6 µM | SR 44.2 µM | SW-620 > 100 µM | UACC-257 56.5 µM
> 100 µM: HCT-15

Cc1cc(NS(=O)(=O)c2ccc(Nc3c4ccccc4nc4c(C(=O)NCCN(C)C)ccc(Cl)c34)cc2)no1
inactive: 786-0 4.41 µM | COLO 205 2.45 µM | K562 2.99 µM | KM-20L2 11 µM | M14 5.25 µM | OVCAR-5 15.1 µM | SF-268 2.15 µM | SF-295 3.8 µM | SK-MEL-28 4.41 µM | SK-MEL-2 6.1 µM | SK-MEL-5 2 µM | SW-620 1.92 µM
5.14 µM: HCT-15
active: DMS-114 0.867 µM | OVCAR-8 1.12 µM | SR 0.37 µM

COc1cc(C=O)c(-c2cc(OC)c(OC)cc2C=O)cc1OC
> 100 µM: HCT-15
inactive: 786-0 > 100 µM | COLO 205 > 100 µM | DMS-114 24.3 µM | K562 36.7 µM | KM-20L2 > 100 µM | M14 > 100 µM | OVCAR-5 > 100 µM | OVCAR-8 91.4 µM | SF-268 46.7 µM | SF-295 > 100 µM | SK-MEL-28 47.8 µM | SK-MEL-2 67 µM | SK-MEL-5 76.6 µM | SR 24.3 µM | SW-620 78 µM | UACC-257 > 100 µM
